In the NIST ThermoML archive (doi:10.1016/j.jct.2006.01.016):

Assays:
[1] = xn = mol fraction of the nth substance listed; conditions: 101 kPa, Liquid
[2] = 101 kPa, Liquid

CCCCn1cc[n+](C)c1.F[B-](F)(F)F [1-butyl-3-methylimidazolium tetrafluoroborate] + CC#N
[1]
Conditions	mass density, 298.15 K [kg/m3]	mass density, 303.15 K [kg/m3]	mass density, 308.15 K [kg/m3]	mass density, 313.15 K [kg/m3]	mass density, 318.15 K [kg/m3]	speed of sound, 298.15 K [m/s]	speed of sound, 303.15 K [m/s]	speed of sound, 308.15 K [m/s]	speed of sound, 313.15 K [m/s]	speed of sound, 318.15 K [m/s]
x1 = 0.0103	794.416	789.093	783.745	778.368	772.971	1289.2	1269.3	1249.6	1230	1210.3
x1 = 0.0442	845.059	839.982	834.883	829.765	824.63	1315.7	1297	1278.2	1259.5	1240.8
x1 = 0.1032	913.689	908.908	904.123	899.327	894.531	1354.8	1337.2	1319.7	1302.3	1284.9
x1 = 0.2015	994.016	989.579	985.147	980.715	976.287	1407.7	1391.8	1375.8	1359.6	1344.1
x1 = 0.2931	1045.58	1041.36	1037.15	1032.94	1028.74	1445.2	1430.2	1415.2	1400.5	1385.8
x1 = 0.3935	1086.98	1082.93	1078.89	1074.86	1070.84	1476.8	1462.7	1448.6	1434.6	1420.8
x1 = 0.5352	1128.52	1124.64	1120.78	1116.92	1113.08	1509.2	1495.9	1482.6	1469.7	1456.9
x1 = 0.7043	1162.31	1158.57	1154.85	1151.13	1147.43	1535.9	–	1511.1	1498.8	1486.6
x1 = 1	1201.42	1197.88	1194.35	1190.82	1187.29	1576	1555.5	1543.9	1532.5	1521.2

CO [methanol]
[2]
Conditions	mass density [kg/m3]	speed of sound [m/s]
298.15 K	786.531	–
303.15 K	781.808	1086.4
308.15 K	777.066	1070.1
313.15 K	772.283	1054
318.15 K	767.474	1037.9

CO [methanol] + CCCCn1cc[n+](C)c1.F[B-](F)(F)F
[1], x2 = 0
Conditions	mass density [kg/m3]	speed of sound [m/s]
298.15 K	786.531	–
303.15 K	781.808	1086.4
308.15 K	777.066	1070.1
313.15 K	772.283	1054
318.15 K	767.474	1037.9
